Laboratory results as given in the supplement of paper PMC10307832.

Legend:
Test in all cases: relative viability (nuclei count vs DMSO), 5 days (fraction); higher = more cells survive
C-75 = compound: CCCCCCCC[C@H]1[C@@H](C(=C)C(=O)O1)C(=O)O [C-75]
Method in brief: (§1)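 Following overnight incubation at 37 °C, lung cancer cell lines in 1536-well plates were pinned with five library-drug doses (not always all listed) in √10 steps on vehicle-anchored plates. The cells then spent 5 days without medium change before a combined fix, permeabilisation and Hoechst stain, 4× imaging and MetaXpress nuclear counts. Viability is the treated-to-vehicle ratio of nuclei, taken as the median across plates. Only plates with control CV below 25% and at least one doubling passed.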

XAV939 = compound: Oc1nc(-c2ccc(C(F)(F)F)cc2)nc2c1CSCC2 [XAV939]
Method in brief: as §1

Navitoclax = compound: CC1(C)CCC(c2ccc(Cl)cc2)=C(CN2CCN(c3ccc(C(=O)NS(=O)(=O)c4ccc(N[C@H](CCN5CCOCC5)CSc5ccccc5)c(S(=O)(=O)C(F)(F)F)c4)cc3)CC2)C1 [Navitoclax]
Method in brief: as §1

[1] = compound: O=C(O)c1ccc(-c2c[nH]c3ncc(-c4ccccc4)cc23)cc1C1CCCC1
Method in brief: as §1

AZD7762 = compound: NC(=O)Nc1cc(-c2cccc(F)c2)sc1C(=O)N[C@H]1CCCNC1 [AZD7762]
Method in brief: as §1

| Cell Line | relative viability (C-75; 0.08 µM) | relative viability (C-75; 0.253 µM) | relative viability (C-75; 0.8 µM) | relative viability (C-75; 2.53 µM) | relative viability (C-75; 8 µM) | relative viability (XAV939; 0.08 µM) | relative viability (XAV939; 0.253 µM) | relative viability (XAV939; 0.8 µM) | relative viability (XAV939; 2.53 µM) | relative viability (Navitoclax; 0.005 µM) | relative viability (Navitoclax; 0.01581 µM) | relative viability (Navitoclax; 0.05 µM) | relative viability (Navitoclax; 0.1581 µM) | relative viability (Navitoclax; 0.5 µM) | relative viability (Navitoclax; 0.5 µM, anchor plate) | relative viability ([1]; 0.04 µM) | relative viability ([1]; 0.1265 µM) | relative viability ([1]; 0.4 µM) | relative viability ([1]; 1.265 µM) | relative viability (AZD7762; 0.01 µM) | relative viability (AZD7762; 0.03162 µM) | relative viability (AZD7762; 0.1 µM) | relative viability (AZD7762; 0.2 µM, anchor plate) | relative viability (AZD7762; 0.3162 µM) | relative viability (AZD7762; 1 µM) |
| --- | --- | --- | --- | --- | --- | --- | --- | --- | --- | --- | --- | --- | --- | --- | --- | --- | --- | --- | --- | --- | --- | --- | --- | --- | --- |
| 201T | 1.02 | 1.16 | 0.987 | 0.917 | 0.993 | 0.96 | 0.808 | 0.762 | 0.846 | 1.06 | 1.14 | 0.974 | 0.957 | 1.04 | 1.19 | 0.997 | 1.05 | 0.948 | 1 | 0.937 | 1.01 | 1.02 | 0.596 | 0.92 | 0.878 |
| A549 | 0.944 | 1.14 | 0.874 | 0.83 | 0.913 | 1.05 | 0.798 | 0.911 | 0.811 | 0.974 | 1.05 | 0.999 | 0.956 | 0.935 | 1.23 | 0.957 | 1.03 | 0.99 | 0.818 | 1 | 0.982 | 0.994 | – | 0.974 | 0.507 |
| A-427 | 1.05 | 0.938 | 0.948 | 0.847 | 0.82 | 1.12 | 0.936 | 0.933 | 0.897 | 1.02 | 0.977 | 0.959 | 1 | 1.03 | 0.968 | 1.03 | 1.11 | 0.998 | 0.888 | 0.988 | 1.02 | 1.03 | 0.784 | 0.852 | 0.419 |
| ABC-1 | 0.904 | 0.864 | 0.917 | 0.733 | 0.676 | 0.927 | 0.847 | 0.677 | 0.568 | 0.833 | 0.977 | 0.846 | 0.984 | 0.976 | – | 0.801 | 1.16 | 0.861 | 0.936 | 0.975 | 0.985 | 0.956 | 0.809 | 0.532 | 0.384 |
| BEN | 1.11 | 1.02 | 0.898 | 0.756 | 0.817 | 1.01 | 0.869 | 0.897 | 0.835 | 0.973 | 1.12 | 0.839 | 0.942 | – | – | 0.931 | 1.08 | 1 | 0.935 | 1.05 | 0.963 | 0.958 | 0.743 | 0.907 | 0.873 |
| CAL-12T | 1.06 | 1.15 | 0.859 | 0.922 | 1.08 | 1 | 0.884 | 0.877 | 0.814 | 0.935 | 1.05 | 1.01 | 0.985 | 1.01 | 1.14 | 1.08 | 1.17 | 0.914 | 0.734 | 0.993 | 0.982 | 1.06 | 0.646 | 0.724 | 0.241 |
| COR-L23 | 0.965 | 1.04 | 0.945 | 0.778 | 1.06 | 1.11 | 0.92 | 1.01 | 0.928 | 0.934 | 1.16 | 1.15 | 0.974 | 0.965 | 1.01 | 0.921 | 1.01 | 0.973 | 0.723 | 1.1 | 0.912 | 1.17 | – | 0.854 | 0.231 |
| COR-L 105 | 0.939 | 0.876 | 0.877 | 0.755 | 0.801 | 1.03 | 0.857 | 0.78 | 0.6 | 0.808 | 1.21 | 0.965 | 0.98 | 0.922 | 0.841 | 1 | 0.951 | 0.945 | 0.88 | 0.949 | 0.918 | 0.822 | – | 0.613 | 0.502 |
| Calu-6 | 1.03 | 1.02 | 0.964 | 0.912 | 0.948 | 1.07 | 0.904 | 0.985 | 0.944 | 0.979 | 1.01 | 1.1 | 0.933 | 0.93 | 0.824 | 0.982 | 1.01 | 0.955 | 0.78 | 1.05 | 0.992 | 0.873 | – | 0.475 | 0.145 |
| ChaGo-K-1 | 0.93 | 0.98 | 0.931 | 0.799 | 0.966 | 0.978 | 0.894 | 1.03 | 0.973 | 1.03 | 1.01 | 0.727 | 0.961 | 1.04 | 1.09 | 1.05 | 1.01 | 0.896 | 1.02 | 1.01 | 0.969 | 1.06 | 0.873 | 0.905 | 0.841 |
| EBC-1 | 1.04 | 1.08 | 0.956 | 0.84 | 0.757 | 1.05 | 0.901 | 0.882 | 0.817 | 0.931 | 1.17 | 0.958 | 1.1 | 0.718 | 0.451 | 1.02 | 1.14 | 0.923 | 0.633 | 1.1 | 0.98 | 0.993 | – | 0.939 | 0.576 |
| EKVX | 0.971 | 0.967 | 0.847 | – | 1.02 | 1.04 | 0.852 | 0.833 | 0.694 | 1.03 | 1.28 | 0.87 | 0.969 | 0.915 | 0.954 | 0.962 | 1.14 | 1.01 | 0.865 | 0.947 | 1.03 | 0.929 | 0.696 | 0.962 | 0.8 |
